PubChem BioAssay AID720547 (The Scripps Research Institute Molecular Screening Center, 2013)
Calls of active or inactive are those of the source.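 Rule for the calls: active = compound flagged as a likely artifact in this counterscreen, with IC50 of 10 µM or lower; inactive = IC50 above 10 µM.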

Tested on: HEK293 Gal4-VP16 luciferase reporter counterscreen, luminescence
Experiment: Gal4-VP16 luciferase reporter inhibitors, dose response, counter-screen for COUP-TFII inhibitor project, cell-based, luminescence, HEK293 (AID 720547);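 note: potency for lowering the luciferase signal driven by Gal4-VP16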

SMILES | IC50
CCOC(=O)N1CCN(C(=O)CSCC(=O)Nc2nc(-c3ccc(-c4ccccc4)cc3)cs2)CC1 | > 28.4 µM (inactive)
Cc1nn(C)c(C)c1CN(C)S(=O)(=O)c1ccc2ccccc2c1 | > 85.4 µM (inactive)
CC(C)(C)c1ccc(-c2cc(-c3ccccc3O)[nH]n2)cc1 | 36.6 µM (inactive)
CC(C)(C)c1ccc(CSc2cnn(C(C)(C)C)c(=O)c2Cl)cc1 | > 85.4 µM (inactive)
CC(C)c1ccc(CN2CCN(C(=O)CSc3nnnn3C3CC3)CC2)cc1 | > 85.4 µM (inactive)
Cc1cccc(Cl)c1NC(=O)N1CCCN(c2nc3ccc(Cl)cc3s2)CC1 | > 85.4 µM (inactive)
CCOC(=O)c1cnc(-n2nc(C)cc2C)nc1NC1CCCC1 | 50.3 µM (inactive)
COc1ccc(CCNc2ncnc3sc(C)cc23)cc1OC | > 28.5 µM (inactive)
CCc1cc(C(=O)NC2CCCc3c2cnn3-c2cccc(C)c2C)n(C)n1 (stereo unspecified) | > 85.4 µM (inactive)
Cc1cc(C(=O)NC2CCCc3c2cnn3-c2ccc(C(C)(C)C)cc2)nn1C (stereo unspecified) | > 85.4 µM (inactive)
COc1ccc(C(=O)Nc2ccccc2C(=O)N/N=C/c2ccc(O)c(OC)c2)cc1 | > 28.5 µM (inactive)
COC(=O)C1CCCCN1C(=O)c1cc(COc2cccc3cnccc23)on1 (stereo unspecified) | > 85.4 µM (inactive)
CC(=O)c1c(C)[nH]c(C(=O)OCC(=O)Nc2ccc(Cl)cc2[N+](=O)[O-])c1C | > 85.4 µM (inactive)
Cc1cc(C)c(CN2CCN(C(=O)Cn3cnc4c(NCc5ccccc5)ncnc43)CC2)c(C)c1 | > 85.4 µM (inactive)
O=C(CSc1nnc(Cn2nnc3ccccc32)o1)N(Cc1ccc(F)cc1)c1ccccc1 | > 85.4 µM (inactive)
O=C1N(c2ccccc2)C[C@@H]2C[C@@H](c3cc4ccccc4o3)N3CCC[C@@]123 | > 85.4 µM (inactive)
Cc1cc(C)c(O)c(C(=O)CC2CC(=O)NC(=O)C2)c1 | > 85.4 µM (inactive)
Cc1c(C(=O)NCc2ccc(C(C)C)cc2)sc(=O)n1Cc1ccc(S(=O)(=O)N(C)C)cc1 | > 85.4 µM (inactive)

SMILES | IC50
Cc1nn(C)c(C)c1/C=C/C(=O)c1ccc(Cl)cc1Cl | > 85.4 µM (inactive)
Cc1ccc(OCCN2CCN(c3ncnc4sc(C)c(C)c34)CC2)cc1 | > 85.4 µM (inactive)
OC[C@@H]1CN(Cc2ccc(-c3ccccc3)cc2)C[C@H](n2cnc3c(NCc4ccc(F)cc4)ncnc32)O1 | 83.4 µM (inactive)
O=C(c1cccs1)C1CCN(c2ncnc3sccc23)CC1 | > 85.4 µM (inactive)
Cc1cc(-n2c(C)cc(C(=O)CSc3ncnc4ccccc34)c2C)no1 | > 85.5 µM (inactive)
Cc1ccc(Cl)cc1S(=O)(=O)N1CCC(C(=O)NC2CCN(Cc3ccccc3)CC2)CC1 | > 85.4 µM (inactive)
COc1ccc(-n2cc(-c3ccc(C)cc3)[n+]3c2SCC3)cc1 | > 85.4 µM (inactive)
O=c1[nH]c(O)c(N=Nc2ccc3c(c2)OCCO3)c(=O)[nH]1 | 40.4 µM (inactive)
COc1ccc(NS(=O)(=O)c2cccc(NC(=O)c3ccc(Cl)nc3)c2)cc1 | 73.5 µM (inactive)
c1ccc2cc3[nH]c(CNc4nc(N5CCOCC5)nc5c4ncn5-c4ccsc4)nc3cc2c1 | > 85.3 µM (inactive)
Cc1cc(/C=C2\Sc3ccccc3N2C)cc(C)[n+]1CC1CCCO1 (stereo unspecified) | > 85.4 µM (inactive)
c1ccc(C(Cc2nc(-c3ccncc3)no2)c2ccccc2)cc1 | > 85.4 µM (inactive)
Cn1c2ccccc2c(=O)c2cc(C#CC3(O)CCCCC3)ccc21 | > 85.4 µM (inactive)
OC[C@@H]1CN(Cc2ccc(-c3ccccc3)cc2)C[C@H](n2cnc3c(NC4CCCC4)ncnc32)O1 | 53.4 µM (inactive)
CCc1cc(-c2nnn(CCC3COCCO3)c2CC)ccc1-c1cn(Cc2ccc3ccccc3c2)nn1 (stereo unspecified) | > 85.4 µM (inactive)
CN(CC1CCCO1)S(=O)(=O)c1ccc(C(=O)Nc2nc3cc4c(cc3s2)OCO4)cc1 (stereo unspecified) | > 85.4 µM (inactive)
c1ccc2c(c1)CCN(c1ncnc3c1[nH]c1ccccc13)C2 | 53.8 µM (inactive)
Cc1nc2ccccc2n1Cc1ccc(Cl)cc1 | > 85.4 µM (inactive)
